According to US20240300945A1, “CLY SERIES COMPOUND, PREPARATION METHOD THEREFOR AND USE THEREOF IN PREPARATION OF DRUGS” (NANJING WELLBEST PHARMACEUTICAL CO., LTD, priority 2021, published 2024):

What was measured:
[1] = test system: skin hair follicles and sebaceous glands of rats; assay: Rat hair loss model: histopathological grading of skin hair follicles and sebaceous glands; format: in vivo, Wistar rats; details: 60 days, 10 rats per group; for number of rats with hair follicle and sebaceous gland grade +++: grade +++ (most severe); for number of rats with hair follicle and sebaceous gland grade ±: grade ± (lesions limited); for number of rats with hair follicle and sebaceous gland grade −: grade − (normal structure)
Description: Wistar rats were, according to weights, randomly divided into the negative control group (75% ethanol for external use), model group (75% ethanol for external use), positive control group (external 5% minoxidil tincture), CLY-1 external treatment group (external 5% CLY-1 tincture), CLY-2 external treatment group (external 5% CLY-2 tincture), CLY-3 external treatment group (external 5% CLY-3 tincture), CLY-4 external treatment group (external 5% CLY-4 tincture), and CLY-5 external treatment group (external 5% CLY-5 tincture) according to their body weight CLY-8 external treatment group (external 5% CLY-8 tincture), CLY-11 external treatment group (external 5% CLY-11 tincture), CLY-19 external treatment group (external 5% CLY-19 tincture), CLY-36 external treatment group (external 5% CLY-36 tincture), CLY-39 external treatment group (external 5% CLY-39 tincture), CLY-1 intravenous injection group (2 mg/kg·d), CLY-3 intravenous injection group (2 mg/kg·d), CLY-4 intravenous injection group (2 mg/kg·d) CLY-5 intravenous injection group (2 mg/kg·d), CLY-8 intravenous injection group (2 mg/kg·d), CLY-11 intravenous injection group (2 mg/kg·d), CLY-19 intravenous injection group (2 mg/kg·d), CLY-36 intravenous injection group (2 mg/kg·d), and CLY-39 intravenous injection group (2 mg/kg·d), with 10 rats in each group. Before the experiment, an area of 4 cm×5 cm was selected on each rat on the back of the neck to remove hair as the observation area. In addition to the negative control group, rats were subcutaneously injected with testosterone propionate injection [5 ml/(kg·d)] once a day for 60 days to establish the androgenic alopecia (AGA) model. […] At the same time, the drug was applied to the observation area on the back of the rats in the corresponding drug group at the rate of 2 mL/(one time), twice a day, at an interval of 8 hours; Intravenous administration once a day. The negative control group and the model control group were smeared with 75% ethanol solution, 2 mL/(one rat per time), twice a day, for 60 days.
Took 10 hairs from the observation area on the back of each rat every 15 days after administration, and measured the hair length with a vernier caliper. After 60 days of administration, the skin of the experimental observation area was taken for routine tissue dehydration, paraffin embedding, HE staining, and light microscopy to observe the histopathological changes of the rat skin hair follicles and sebaceous glands. Semi-quantitative analysis was performed for each group. The grading criteria are as follows: the normal structure of dermal tissue cells, subcutaneous hair follicles, and sebaceous glands is marked as […]: no hyperplasia of dermal tissue is found, the lesions of hair follicles and sebaceous glands are limited, and no inflammation is found under the skin is marked as “+”: no obvious hyperplasia of dermal tissue is found, and the follicles are obviously cystic. No obvious hyperplasia of sebaceous glands is found, and no inflammation is found under the skin is marked as “+”: the dermal tissue has segmental hyperplasia, which is not obvious, A small number of hair follicles have cystic changes, and the sebaceous glands have mild hyperplasia and hypertrophy. There is no obvious inflammation under the skin, which is marked as “++”: the dermal tissue cells of the skin have different degrees of segmental hyperplasia, and some hair follicles have cystic changes, showing uneven size of hair follicles, and no cells around. The sebaceous glands have hyperplasia, and the nuclei in the proliferative glands are few. A few rats have mild inflammatory hyperplasia under the skin, which is marked as “+++”.

[2] = Pharmacokinetic properties of rats (bioavailability); format: in vivo; details: rat, po; male SD rats; intravenous 1 mg/kg, intragastric 5 mg/kg; plasma LC/MS/MS
Description: Male SD rats were randomly assigned to each group, 12 rats in each compound group, and then randomly divided into two groups. Six rats were administered intravenously (1 mg/kg), and blood was collected and plasma was separated respectively at 0.0833, 0.25, 0.5, 1, 2, 4, 6, 8, and 24 hours after administration. The other six rats were administered intragastrically (5 mg/kg), and blood was collected and plasma was separated respectively at 0.25, 0.5, 1, 2, 4, 6, 8, and 24 hours after administration. The concentration of each compound in plasma was determined by LC/MS/MS method, and the relevant pharmacokinetic parameters were calculated by using the software Phoenix WinNonlin 6.2.1, the bioavailability in rats was calculated, and the pharmacokinetic properties of each compound were evaluated.

| SMILES | number of rats with hair follicle and sebaceous gland grade +++ ([1]; external 5% tincture) | number of rats with hair follicle and sebaceous gland grade +++ ([1]; intravenous 2 mg/kg·d) | number of rats with hair follicle and sebaceous gland grade ++ ([1]; external 5% tincture) | number of rats with hair follicle and sebaceous gland grade ++ ([1]; intravenous 2 mg/kg·d) | number of rats with hair follicle and sebaceous gland grade + ([1]; external 5% tincture) | number of rats with hair follicle and sebaceous gland grade + ([1]; intravenous 2 mg/kg·d) | number of rats with hair follicle and sebaceous gland grade ± ([1]; external 5% tincture) | number of rats with hair follicle and sebaceous gland grade ± ([1]; intravenous 2 mg/kg·d) | number of rats with hair follicle and sebaceous gland grade − ([1]; external 5% tincture) | number of rats with hair follicle and sebaceous gland grade − ([1]; intravenous 2 mg/kg·d) | bioavailability [2] [%] |
| --- | --- | --- | --- | --- | --- | --- | --- | --- | --- | --- | --- |
| O=C(c1ccc(-n2nnc3cccnc32)cc1)N(c1ncccc1Cl)C1CCCC(O)C1 (centres unmarked) [CLY-4] | 0 | 0 | 3 | 1 | 4 | 5 | 3 | 4 | 0 | 0 | 59.5 |
| CCN1CCC[C@@H](N(C(=O)c2ccc(-n3nnc4cccnc43)cc2)c2ncccc2Cl)C1 [CLY-2, (R)-4-(3H-[1,2,3]triazolo[4,5-b]pyridin-3-yl)-N-(3-chloropyridin-2-yl)-N-(1-ethylpiperidin-3-yl)benzamide] | 0 | 0 | 1 | 0 | 3 | 3 | 6 | 7 | 0 | 0 | 72.6 |
| CN1CCC[C@@H](N(C(=O)c2ccc(-n3nnc4cccnc43)cc2)c2ncccc2Cl)C1 [CLY-1, (R)-4-(3H-[1,2,3]triazolo[4,5-b]pyridin-3-yl)-N-(3-chloropyridin-2-yl)-N-(1-methylpiperidin-3-yl)benzamide] | 0 | 0 | 1 | 0 | 4 | 4 | 5 | 6 | 0 | 0 | 69.8 |
| Nc1cc(N2CCCCC2)nc(N)[n+]1[O-] [Positive control group, minoxidil, reference compound] | 1 | – | 3 | – | 4 | – | 2 | – | 0 | – | – |
| O=C(c1ccc(-c2ccccc2Cl)cc1)N(c1ncccc1Cl)[C@@H]1CCCNC1 [CLY-36] | 0 | 0 | 3 | 3 | 2 | 1 | 5 | 6 | 0 | 0 | 68.6 |
| CNC1CCCC(N(C(=O)c2ccc(-n3nnc4cccnc43)cc2)c2ncccc2Cl)C1 (centres unmarked) [CLY-3] | 0 | 0 | 1 | 1 | 5 | 4 | 4 | 5 | 0 | 0 | 69.5 |
| Nc1ccccc1-c1ccc(C(=O)N(c2ncccc2Cl)[C@@H]2CCCNC2)cc1 [CLY-39] | 0 | 0 | 1 | 1 | 3 | 2 | 6 | 7 | 0 | 0 | 65.6 |
| COC1CCCC(N(C(=O)c2ccc(-n3nnc4cccnc43)cc2)c2ncccc2Cl)C1 (centres unmarked) [CLY-5] | 0 | 0 | 0 | 0 | 4 | 2 | 6 | 8 | 0 | 0 | 53.8 |
| O=C(c1ccc(-c2ccccc2-c2nnn[nH]2)cc1)N(c1ncccc1Cl)[C@@H]1CCCNC1 [CLY-19] | 0 | 0 | 2 | 2 | 3 | 2 | 5 | 6 | 0 | 0 | 66.3 |
| O=C(c1ccc(-n2nnc3cccnc32)cc1)N(c1ncccc1Cl)[C@@H]1CCNC1 [CLY-8, (R)-4-(3H-[1,2,3]triazolo[4,5-b]pyridin-3-yl)-N-(3-chloropyridin-2-yl)-N-(pyrrolidin-3-yl)benzamide] | 0 | 0 | 0 | 0 | 3 | 2 | 7 | 8 | 0 | 0 | 78.2 |
